Results: patent US11052154B2, “Ras protein degradation inducing molecule and pharmaceutical composition” (Tokyo University of Science Foundation, priority 2016, dated 2021)
Where a SMILES comes first, the peptide text is derived from it. [ ]: non-standard residue; d: D form. Nle = CCCC[C@H](N)C(=O)O

Assays:
[1] = molecular target: T1, catalytic subunit β1 of a proteasome (Homo sapiens, UniProt P28072); conditions: literature report, consistent with FIG. 13A; cited from earlier work
T1 construct: purchased Bioscience (so in the source) 20S Proteasome StressXpress Assay Kit Gold

[2] = molecular target: T2, PAC-3 (molecule assembly factor) (Homo sapiens, UniProt Q9BT73); conditions: Table 17; cited from earlier work
T2 sequence (Q9BT73 1-122): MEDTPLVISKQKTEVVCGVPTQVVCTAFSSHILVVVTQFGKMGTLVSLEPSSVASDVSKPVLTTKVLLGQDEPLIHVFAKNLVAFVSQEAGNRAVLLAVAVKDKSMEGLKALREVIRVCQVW

[3] = molecular target: T3, endogenous wild-type H-Ras protein (Mus musculus, UniProt Q61411); assay: Degradation of endogenous wild-type H-Ras protein in mouse pancreas and colorectal tissue, Western blot analysis; format: in vivo; conditions: C57BL/6J mice, intraperitoneal, TUS-007 40 or 80 mg/kg, Ras-SOS 80 mg/kg, 48 hours; pancreas and colon; FIG. 8
T3 construct: an endogenous wild-type K-Ras protein and wild-type H-Ras protein; from tissue; host or cells: mouse pancreas and colon
Experimental: (§1) In Example 9, in a mouse individual to which TUS-007 had been administered, the degradation (knockdown) of an endogenous wild-type K-Ras protein and wild-type H-Ras protein was evaluated by Western blot analysis.
(§2) TUS-007 was dissolved in DMSO, and then dissolved in corn oil so that the concentration of DMSO was 10 vol %, and then intraperitoneally administered to C57BL/6J wild-type mice (8 to 9 weeks old, male) (CLEA Japan, Inc.) in an amount of 40 mg/kg body weight or 80 mg/kg body weight (n=3 to 4). Furthermore, in addition to a group in which TUS-007 was administered, a group in which Ras-SOS had been administered in a dose of 80 mg/kg body weight was prepared. As a control, an injection carrier (corn oil containing 10 vol % DMSO) was used. The mice were kept under an environment of ad libitum access to food and water. The mice were dissected under deep anesthesia 48 hours after administration. The pancreas and colon were excised, and flash frozen in liquid nitrogen.
(§3) The frozen pancreas and colon were each triturated, and then TKM tissue lysis buffer (50 mM triethanolamine (pH 7.8), 50 mM KCl, 5 mM MgCl2, 0.25 M sucrose, 1 mM PMSF, Protein Inhibitors Cocktail-EDTA free (Nacalai Tesque, Inc.), 1 mM DTT, and a recombinant RNase inhibitor (0.2 U/μL, Takara Bio) were added, and subjected to centrifugation (at 13800 rpm×30 minutes, 4° C.), and the supernatants (pancreatic tissue extract and colorectal tissue extract) were collected. The concentration of the extracted proteins was quantified with a spectrophotometer.
(§4) Each tissue extract collected was subjected to Western blot analysis. […]
(§5) After electrophoresis, proteins were transferred to a PVDF membrane (Immobion™-P, Millipore) under conditions of 200 mA and 90 minutes using a tank-type blotting device and a transfer buffer (25 mM Tris-HCl, 195 mM glycine, 0.01% SDS, 15% methanol). […] Subsequently, the membrane was treated with a chemiluminescence reagent Immobilon™ Western (Millipore), and then chemiluminescence was detected using a lumino image analyzer LAS-3000 (FUJIFILM Corporation).

SW1990 cells = assay: Apoptosis induction in SW1990 cells, FACS analysis (Annexin V/PI); format: cell-based, human; conditions: SW1990 cells expressing G12D mutant K-Ras, 24 hours after addition; FIGS. 6B, 7B
Experimental: (§6) In Example 7, apoptosis induction in a case where TUS-007, Ras-SOS, or Ras-SOS-NH2 was added to HeLa cells or SW1990 cells (human pancreatic cancer cells) had been added was evaluated by the FACS analysis. It is noted that in HeLa cells, the wild-type K-Ras protein (K-Ras-WT) is expressed, and in SW1990 cells, the G12D mutant K-Ras protein (K-Ras-G12D) is expressed.
(§7) HeLa cells or SW1990 cells were seeded in a 24-well plate at a cell density of 8×10^4 cells/well, and then cultured under conditions of 37° C. and 5 vol % CO2 for 16 hours.
(§8) After 16 hours from cell seeding, TUS-007, Ras-SOS, or Ras-SOS-NH2 were added to HeLa cells or SW1990 cells as follows. As a medium, a serum-free medium (37° C.) in which 1 mass % L-glutamine solution (Sigma-Aldrich) was added to D-MEM (high D-glucose, phenol red, sodium pyruvate (Wako Pure Chemical Industries, Ltd.)) was used. It is noted that the L-glutamine solution was added immediately before use. A DMSO solution containing TUS-007, Ras-SOS, or Ras-SOS-NH2 was mixed with the medium so that the concentration of DMSO was 1 vol %, and added to each well at 500 μL/well, and cultured under conditions of 37° C. and 5 vol % CO2. As a control, DMSO was used.
(§9) The medium was removed 24 hours after addition of TUS-007, Ras-SOS, or Ras-SOS-NH2, and then PBS was added to wash the cells. After removing PBS, trypsin (0.25 w/v % trypsin-1 mmol/L EDTA⋅4 Na solution with phenol red) (Wako Pure Chemical Industries, Ltd.) at 37° C. was added to each well at 200 μL/well, and cultured under conditions of 37° C. and 5 vol % CO2 for 1 minute. […]
(§10) A BD FACSCanto™ II (BD Biosciences) was used for flow cytometry. […] The proportion of Annexin V-positive and PI-negative cells was calculated using an analysis software FlowJo™ (TOMY Digital Biology Co., Ltd.), and the proportion was defined as a proportion of apoptosis cells.
(§11) In Example 8, apoptosis induction in a case where TUS-007, Ras-SOS-NH2, or erlotinib as an anticancer agent (EGFR inhibitor) was added to HeLa cells or SW1990 cells was evaluated by FACS analysis as in Example 7.

[4] = test system: interaction between the Ras protein and the SOS protein; conditions: known from Sun, Q. et al.; cited from earlier work
K-Ras protein = conditions: known from Sun, Q. et al.; cited from earlier work
HeLa cells = assay: Apoptosis induction in HeLa cells, FACS analysis (Annexin V/PI); format: cell-based, human; conditions: HeLa cells expressing wild-type K-Ras, 24 hours after addition; FIGS. 6A, 7A
Experimental: as §6, §7, §8, §9, §10, §11

[5] = molecular target: T4, endogenous wild-type K-Ras protein (Mus musculus, UniProt P32883); assay: Degradation of endogenous wild-type K-Ras protein in mouse pancreas and colorectal tissue, Western blot analysis; format: in vivo; conditions: C57BL/6J mice, intraperitoneal, TUS-007 40 or 80 mg/kg, Ras-SOS 80 mg/kg, 48 hours; pancreas and colon; FIG. 8
T4 construct: an endogenous wild-type K-Ras protein and wild-type H-Ras protein; from tissue; host or cells: mouse pancreas and colon
Experimental: as §1, §2, §3, §4, §5

ecDHFR protein [6] = molecular target: T5, ecDHFR protein (Escherichia coli, UniProt P0ABQ4); format: cell-based, human; conditions: HeLa cells, 24 hours after addition, vs control (DMSO); FIGS. 11, 14
T5 construct: expressed in transfected cells; host or cells: HeLa

[7] = molecular target: T1, catalytic subunit β1 of a proteasome; assay: Proteasome inhibitory activity, 20S proteasome β1 (caspase-like activity); format: biochemical; conditions: 20S proteasome assay kit, AMC fluorescence substrate; FIGS. 10A, 13A
Experimental: (§12) In Reference Example 2, the proteasome inhibitory activity of TMP-CANDDY_DMT and the affinity of TMP-CANDDY_DMT with a proteasome were evaluated. As a positive control, MG-132 as a proteasome inhibitor was used.
(§13) For evaluation, 20S Proteasome StressXpress™ Assay Kit Gold (Bioscience) was used. AMC was measured by using Multi-Detection Microplate Reader (Synergy HT, BIO-TEK). The AMC was produced by cleaving the C-terminus of an AMC-binding proteasome fluorescence substrate specific to β subunits of a 20S proteasome, including β5 (chymotrypsin-like activity), β2 (trypsin-like activity), and β1 (caspase-like activity). The measuring wavelengths were 360 nm for excitation light (Ex.), and 460 nm for fluorescence (Em.).
(§14) In Reference Example 6, as in Reference Example 2, a proteasome inhibitory activity of TMP-CANDDY_ALLN and an affinity of TMP-CANDDY_ALLN with a proteasome were evaluated.

[8] = molecular target: T6, catalytic subunit β2 of the proteasome (Homo sapiens, UniProt Q99436); assay: Proteasome inhibitory activity, 20S proteasome β2 (trypsin-like activity); format: biochemical; conditions: 20S proteasome assay kit, AMC fluorescence substrate; FIGS. 10B, 13B
T6 construct: purchased Bioscience (so in the source) 20S Proteasome StressXpress Assay Kit Gold
Experimental: as §12, §13, §14

[9] = molecular target: T7, catalytic subunit β5 of the proteasome (Homo sapiens, UniProt P28074); assay: Proteasome inhibitory activity, 20S proteasome β5 (chymotrypsin-like activity); format: biochemical; conditions: 20S proteasome assay kit, AMC fluorescence substrate; FIGS. 10C, 13C
T7 construct: purchased Bioscience (so in the source) 20S Proteasome StressXpress Assay Kit Gold
Experimental: as §12, §13, §14

ecDHFR protein [10] = molecular target: T5, ecDHFR protein; format: cell-based, human; conditions: HeLa cells, FIGS. 12A, 12B

CCCC[C@@H](C=O)NC(=O)[C@H](CC(C)C)NC(=O)[C@H](CC(C)C)NC(C)=O [ALLN] (Ac-Leu-Leu-[Nle]-aldehyde)
inhibition of proteasome β1 as reported (Kaiser, M. et al.) [1]: β1 was not inhibited by ALLN

CC(C)C(O)(CC1C(=O)/C(=C(\O)[C@H]2C3CCCC[C@H]3C=C[C@H]2C)C(=O)N1C)C(=O)O (some centres unmarked) [JBIR-22]
Others: PAC-3 inhibition [2]: PAC-3 (molecule assembly factor) inhibition)

CC[C@H](C)[C@H](N)C(=O)Nc1ccc2[nH]c(Cc3c[nH]c4ccccc34)nc2c1 [Ras-SOS]
amount of the endogenous wild-type H-Ras protein in mouse tissues (Western blot) [3]: the amount of the wild-type K-Ras protein and the wild-type H-Ras protein was not reduced | apoptosis induction (proportion of Annexin V-positive and PI-negative cells) (SW1990 cells): the effect of the apoptosis induction by Ras-SOS was largely reduced | inhibition of the interaction between the Ras protein and the SOS protein [4]: inhibit the interaction between the Ras protein and the SOS protein | binding to K-Ras protein (wild-type, G12D mutant, G12V mutant) (K-Ras protein): bound to not only a wild-type K-Ras protein but also a G12D mutant and a G12V mutant K-Ras protein | apoptosis induction (proportion of Annexin V-positive and PI-negative cells) (HeLa cells): apoptosis was induced in a concentration-dependent manner | amount of the endogenous wild-type K-Ras protein in mouse tissues (Western blot) [5]: the amount of the wild-type K-Ras protein and the wild-type H-Ras protein was not reduced

CCCC[C@H](NC(=O)[C@H](CC(C)C)NC(=O)[C@H](CC(C)C)NC(C)=O)C(=O)NCCCCCCNC(=O)COc1c(OC)cc(Cc2cnc(N)nc2N)cc1OC [TMP-CANDDY_ALLN]
degradation (knockdown) of the ecDHFR protein (shift of GFP/DsRed ratio graph) (ecDHFR protein [6]): degradation of the ecDHFR protein was induced | inhibitory activity against proteasome β1 (caspase-like activity) [7]: increased against any of β1, β2, and β5 in a concentration dependent manner | inhibitory activity against proteasome β2 (trypsin-like activity) [8]: the inhibitory activity was weakened | inhibitory activity against proteasome β5 (chymotrypsin-like activity) [9]: the inhibitory activity was weakened

COc1nc(NCCCCCCNC(=O)COc2c(OC)cc(Cc3cnc(N)nc3N)cc2OC)nc(OC)n1 [TMP-CANDDY_DMT]
amount of the ecDHFR protein (Western blot) (ecDHFR protein [10]; 24 hours after addition, cycloheximide 50 μg/mL at 12 hours): the amount of the ecDHFR protein was reduced | degradation of the ecDHFR protein when both TMP-CANDDY_DMT and bortezomib were added (ecDHFR protein [10]; bortezomib co-added, compared with TMP-CANDDY_DMT alone): degradation of the ecDHFR protein was inhibited | degradation (knockdown) of the ecDHFR protein (shift of GFP/DsRed ratio graph) (ecDHFR protein [6]): degradation of the ecDHFR protein was induced | inhibitory activity against proteasome β1 (caspase-like activity) [7]: significantly lower proteasome inhibitory activity as compared with MG-132 | inhibitory activity against proteasome β2 (trypsin-like activity) [8]: significantly lower proteasome inhibitory activity as compared with MG-132 | inhibitory activity against proteasome β5 (chymotrypsin-like activity) [9]: significantly lower proteasome inhibitory activity as compared with MG-132

C#Cc1cccc(Nc2ncnc3cc(OCCOC)c(OCCOC)cc23)c1 [erlotinib]
apoptosis induction (proportion of Annexin V-positive and PI-negative cells) (SW1990 cells): the effect of the apoptosis induction by erlotinib was largely reduced | apoptosis induction (proportion of Annexin V-positive and PI-negative cells) (HeLa cells): apoptosis was induced in a concentration-dependent manner
